Test results: patent US11266715B2, “C3A receptor agonists for use against ischemic brain injury, stroke, traumatic brain injury, spinal cord injury and neurodegenerative disorders” (priority 2016, dated 2022)

Assays:
Iba-1+ cells = test: Iba-1 positive cell density in dorsal hippocampus after neonatal HI; type: in vivo, mouse; details: P55, 3 days treatment after HI
Protocol: On P51 (long-term study) or P55 (short-term study), mice were deeply anesthetized with thiopental [Pentothal Sodium (0.01 ml/g body weight), Hospira, Ill., USA)] and transcardially perfused with 0.9% saline, followed by 4% paraformaldehyde (PFA) in 0.1 M PBS. Brains were removed and post-fixed in 4% PFA at 4° C. for 24 h followed by 70% ethanol for 24 h. Tissue was processed using an automatic tissue processor (SAKURA Tissue Tek VIP 3000, Tournai, Belgium) and embedded in paraffin. Brains were cut at room temperature into 8-μm serial coronal sections using a sliding microtome (Microm HM 450, Thermo Scientific, Massachusetts, USA), attached to silane coated slides and dried at RT. […]
(§1) NeuN positive cells, GFAP positive relative area, as well as GAP-43, SYN, and VGLUT1 positive puncta were counted by using MetaMorph software (ver. 7.8.6, Molecular Devices, CA, USA) on confocal images obtained with a 20× (NeuN and GFAP) or 63× (GAP-43, SYN, and VGLUT1) objective (Carl Zeiss LSM 700 Laser Scanning Microscope, Jena, Germany). Iba-1 positive cell somata were counted on bright field images obtained with a 20× objective (Nikon Eclipse 80i). […]

synapsin I+ puncta = test: Synapsin I immunostaining of dorsal hippocampus after neonatal HI; type: in vivo, mouse; details: between groups or hemispheres
Protocol: Neuronal nuclei (NeuN), growth associated protein 43 (GAP-43), synapsin I (SYN), vesicular glutamate transporter 1 (VGLUT1), Glial Fibrillary Acidic Protein (GFAP) and ionized calcium-binding adapter molecule 1 (Iba-1) were visualized in the cornu ammonis (CA) and dentate gyrus (DG) of the dorsal hippocampus by immunohistochemistry. Briefly, following heat-induced antigen retrieval with 0.01 M citrate buffer (pH 6, 0.05% Tween 20) for 3×5 min, sections were washed 3×5 min with PBS-T (0.05% Tween 20), non-specific protein binding was reduced by incubation with blocking buffer [4% normal donkey serum (NeuN and Iba-1), 1% bovine serum albumin (GAP-43 and SYN), 3% normal goat serum (VGLUT1), 2% bovine serum albumin (GFAP) in PBS-T] for 1 h at room temperature (RT). […]
as §1

[1] = test system: cultured primary astrocytes; details: cited from earlier work

In the case of “C3a: Purified human C3a peptide (Complement Technologies), C3a receptor agonist, amino acid sequence SEQ ID NO: 1”, the “density of Iba-1+ cells, ipsilateral vs contralateral” value (Iba-1+ cells) is listed as “did not differ between the hemispheres”, the “density or average area of synapsin I+ puncta in CA1 or dentate gyrus” value (synapsin I+ puncta) is listed as “did not find any differences” and the “ischemia-induced upregulation of GFAP” value ([1]; cultured primary astrocytes, C3aR-dependent) is listed as “attenuated ischemia-induced upregulation of GFAP”. The survival of astrocytes ([1]; in vitro ischemia model) was “increased the survival of astrocytes”.
